The results in this text go back to patent publication US20170363616A1, “PATTERNED NEUROMUSCULAR JUNCTIONS AND METHODS OF USE” (Los Alamos National Security, LLC, priority 2014, published 2017).

One assay deals with C2C12 skeletal myoblasts. The assay can be described thus: Differentiation of C2C12 myoblasts to myotubes on graphene films or SiO2. The assay is classed as cell-based, mouse. As for the experimental part:
C2C12 skeletal myoblasts (ATCC Cat. No. CRL 1772) were cultured on graphene films or SiO2 in high glucose DMEM supplemented with 10% fetal bovine serum (FBS) and 1% antibiotics. […] Cells were cultured for 5 days and stained with primary antibody MF20 (myosin heavy chain, MHC) overnight at 4° C., followed by goat anti-mouse secondary antibody and the nuclear stain 4′, 6-diamidino-2-phenylindole (DAPI) for 2 hours at 37° C. Cells were imaged with a fluorescent microscope and images were quantified using ImageJ 1.47d.
Fusion index was calculated as the ratio of the number of nuclei in myocytes with two or more nuclei versus the total number of nuclei. Cell density was determined by counting the number of nuclei in a particular area. Statistical analysis was performed using one-way analysis of variance and values are reported as mean±standard error of the mean.

The test system of assay [1] is NSC-34 motor neuron cells. The assay can be described thus: Differentiation of NSC-34 motor neuron cells (neurite outgrowth). Format: cell-based, mouse. As to conditions: IGF-1 added to Neurobasal differentiation media. As for the experimental part:
NSC-34 cells (Cellutions, Cat. No. CLU 140) are a hybrid cell line produced by fusion of motor neuron enriched embryonic mouse spinal cord cells with mouse neuroblastoma, resulting in a motor neuron-like cell. NSC-34 cells were grown in high glucose DMEM with 10% FBS and 1% antibiotics. […] In some examples, NSC-34 cells were cultured in Neurobasal medium with 50-100 ng/ml IGF-1. Cells were imaged with a fluorescent microscope and images were quantified using ImageJ 1.47d with the NeuronJ plugin.

Where [2] appears, read: IGF-1 (50 ng/ml) added to differentiation medium, graphene films, vs differentiation medium alone.

With insulin-like growth factor-1 [IGF-1], in the assay with C2C12 skeletal myoblasts (setting [2]), the cell density result is reported as “significantly increased”, the fusion index entry is “significantly increased” and the myotube formation entry was “significantly increased”. The myotube formation entry in the assay on C2C12 skeletal myoblasts (increasing the amount of IGF-1 in the differentiation medium from 1-500 ng/ml) is “increased myotube formation”. In assay [1], the “neurite length per neuron” value was “significantly increased”, the “number of neurites per neuron” value is “did not affect” and the “sum of neurite length” value is reported as “significantly increased”.
